This passage reports TGI results from PubChem BioAssay (NCI).

Holding throughout (assay): NCI anticancer screen, dose series, 48 h
The subject of experiment [1] is K-562 leukemia.
The subject of experiment [2] is M14 melanoma.
The subject of experiment [3] is OVCAR-3 ovarian.
In experiment [4] the test system is CAKI-1 renal.
Experiment [5] concerns PC-3 prostate.
Experiment [6] has as its system CCRF-CEM leukemia.
Experiment [7] relates to COLO 205 colon.
In experiment [8] the test system is A549 NSCLC.
The subject of experiment [9] is MDA-N.
Experiment [10] concerns HL-60(TB) leukemia.
The test system of experiment [11] is SF-268 CNS.
Experiment [12] concerns T-47D breast.
Experiment [13] relates to HS 578T breast.

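1) Cells in 96-well plates. 2) Compound, 48 h, 5 concentrations. 3) Linear interpolation between surrounding doses. 4) Unreached endpoint = highest concentration. TGI: concentration producing complete growth inhibition.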

Consider `COC(=O)CC(CNC(=O)OCc1ccccc1)OCc1ccc(OC)cc1` (stereo not given), for which the TGI in [1], in experiment [2], in experiment [3], in [4], in experiment [5] and in experiment [6] was greater than 100 µM throughout. In addition, the TGI in [7], in experiment [8], in experiment [9] and in experiment [10] was greater than 100 µM throughout.
Regarding `CCCCCCCc1cscc1-c1cscc1Br`, the TGI is greater than 100 µM in experiment [1]; greater than 100 µM in experiment [2]; greater than 100 µM in [11]; 91.2 µM in experiment [4]; greater than 100 µM in experiment [5]; 40.3 µM in [6]. The TGI in experiment [12] was 88.3 µM; in experiment [7], 35.6 µM; in experiment [8], greater than 100 µM; in [9], greater than 100 µM.
For `C/C1=C/C[C@@H](/C(C)=C/c2csc(C)n2)OC(=O)C[C@H](O)C(C)(C)C(=O)[C@H](C)[C@@H](O)[C@@H](C)CCC1`, the TGI in experiment [2] turned out to be 0.23 µM; in experiment [3], 0.173 µM; in [4], 0.305 µM; in experiment [5] it was 0.193 µM; in experiment [6], 0.894 µM; in experiment [12] it was 0.361 µM. In addition, the values for the TGI in experiment [13] and in experiment [8] were less than 0.0001 µM and 0.181 µM, respectively.
On to `Cc1cccc(N=C/C=C(\Cl)c2ccc3ccccc3c2)c1`, for which the TGI in experiment [1] is 40 µM; in [2], 38 µM; in experiment [3], 32.3 µM; in experiment [11], greater than 79.4 µM; in [4], 34.5 µM; in experiment [5], 53.1 µM. Further, the TGI in experiment [12] is 37.2 µM; in experiment [13], greater than 96.7 µM; in experiment [7] it was 45.8 µM; in [8] it was greater than 100 µM; in experiment [10] it was 38.5 µM.
For the compound `Oc1c(Cl)c(Cl)c(O)c(CCNc2nccs2)c1Cl`, the TGI is greater than 100 µM in [1]; 36 µM in experiment [2]; 33.3 µM in experiment [3]; 36.1 µM in [11]; 29.3 µM in [4]; 45.1 µM in [5]. For the same compound, the TGI in experiment [6] is greater than 100 µM; in experiment [12], 34.8 µM; in experiment [7], 57.9 µM; in [8], 49.8 µM; in [10] it was greater than 100 µM.
On to `CCCCCCCCCC/C=C/C=O`, for which the TGI in [1], in [2], in experiment [3], in [11], in experiment [6] and in experiment [7] was greater than 100 µM each time. The TGI in experiment [8] and in experiment [10] was greater than 100 µM throughout.
In the case of `C=CC(=O)NCNC(=O)C=C`, the TGI in experiment [1], in experiment [2], in [3], in experiment [11], in [4] and in experiment [6] was greater than 100 µM in each case. The TGI in [7], in [8] and in [10] was greater than 100 µM each time.
For the compound `c1ccc2cc(CNCCCCNCCCNCc3ccc4ccccc4c3)ccc2c1`, the TGI in [2] is 3.69 µM; in experiment [3], 3.52 µM; in experiment [11], 2.83 µM; in [4], 3.31 µM; in [5], 3.3 µM; in experiment [6], greater than 100 µM. The TGI in experiment [13] was 1.26 µM; in experiment [8], 4.25 µM; in experiment [9] it was 2.54 µM.
With `CCOC(=O)C1=CNC(C(=O)OCC)C1c1cccn1-c1ccccc1` (stereo not given), the TGI in [1] was greater than 100 µM; in experiment [2], greater than 100 µM; in [3], greater than 100 µM; in experiment [11], greater than 100 µM; in experiment [4], greater than 100 µM; in experiment [5], 71.3 µM. Further, the TGI was 77 µM in experiment [6]; greater than 100 µM in [12]; greater than 100 µM in [13]; 68.2 µM in [7]; greater than 100 µM in [8]; 57.4 µM in [9].
For the compound `Cc1cccc2c1c(=O)c1c(O)cc3c(c1n2C)C=CC(C)(C)O3`, the TGI in experiment [1], in experiment [2], in [3], in [11], in experiment [4] and in experiment [5] was greater than 100 µM each time. Moreover, the TGI in experiment [6], in [13], in [7], in [8], in [9] and in experiment [10] was greater than 100 µM in each case.
On to `O=C1CC(C(OCc2ccccc2)C(OCc2ccccc2)C(OCc2ccccc2)C(COCc2ccccc2)OCc2ccccc2)CC(=O)N1` (stereo not given), for which the TGI in experiment [1], in experiment [2], in experiment [3], in experiment [11], in experiment [5] and in experiment [6] was greater than 100 µM each time. In addition, the TGI in experiment [13], in experiment [8], in [9] and in experiment [10] was greater than 100 µM in each case.
As to `O=[N+]([O-])c1ccc(CN=C2NNS(=O)(=O)c3ccccc32)cc1`, the TGI in [1], in experiment [2], in [3], in experiment [11], in experiment [4] and in experiment [6] was greater than 100 µM each time. Moreover, the TGI in experiment [7], in experiment [8] and in experiment [10] was greater than 100 µM in each case.
With `O=C1CCCC2=C1CC1=C(CCCC1=O)N2c1ccc([N+](=O)[O-])cc1`, the TGI in [1], in experiment [2], in experiment [3], in [11], in experiment [4] and in [5] was greater than 100 µM in each case. Further, the TGI in experiment [6], in experiment [13], in [8] and in [10] was greater than 100 µM throughout.
With `Nc1nc(N)c2ncn(-c3ccccc3)c2n1`, the TGI in [2], in experiment [3], in experiment [11], in [4], in experiment [5] and in experiment [6] was greater than 100 µM in each case. Moreover, the TGI in experiment [12], in experiment [13], in experiment [7], in [8] and in [9] was greater than 100 µM each time.
